Experimental data taken from patent US6472348B1, “Pyridone derivatives and herbicides” (Kumiai Chemical Industry Co., Ltd., priority 1996, dated 2002).

Tests used:
barnyardgrass (Ec) [1] = assay: Test Example 1: herbicidal effects by paddy field soil treatment; type: in vivo; details: 100 g of the active ingredient per 10 ares, 21st day after the application, index 0-5 of Table 47;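 note: grade of growth control; 5 = at least 90%; 4 = 70 to 90%; 3 = 50 to 70%; 2 = 30 to 50%; 1 = 10 to 30%; 0 = under 10%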
Method in brief: (§1)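 Flooded paddy-soil pots (3 cm water) sown after puddling/leveling; treatment 100 g a.i./10 ares; greenhouse culture; herbicidal effect rated visually on a scoring scale at 21 d post-application.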

bulrush (Sc) = assay: as above; type: in vivo; details: 100 g of the active ingredient per 10 ares, 21st day after the application, index 0-5 of Table 47;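 note: grade of growth control; 5 = at least 90%; 4 = 70 to 90%; 3 = 50 to 70%; 2 = 30 to 50%; 1 = 10 to 30%; 0 = under 10%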
Method in brief: as §1

monochoria (Mo) = assay: as above; type: in vivo; details: 100 g of the active ingredient per 10 ares, 21st day after the application, index 0-5 of Table 47;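 note: grade of growth control; 5 = at least 90%; 4 = 70 to 90%; 3 = 50 to 70%; 2 = 30 to 50%; 1 = 10 to 30%; 0 = under 10%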
Method in brief: as §1

Digitaria ciliaris (Di) = assay: Test Example 2: herbicidal effects by upland field soil treatment; type: in vivo; details: 100 g of the active ingredient per 10 ares;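 note: grade of growth control; 5 = at least 90%; 4 = 70 to 90%; 3 = 50 to 70%; 2 = 30 to 50%; 1 = 10 to 30%; 0 = under 10%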
Description: (§2) (Test on Herbicidal Effects by Upland Field Soil Treatment)

barnyardgrass (Ec) [2] = assay: as above; type: in vivo; details: 100 g of the active ingredient per 10 ares
Description: as §2

[3] = test system: common lambsquarters (Ch); assay: as above; type: in vivo; details: 100 g of the active ingredient per 10 ares
Description: as §2

pale smartweed (Po) [4] = assay: as above; type: in vivo; details: 100 g of the active ingredient per 10 ares
Description: as §2

rice flatsedge (Ci) [5] = assay: as above; type: in vivo; details: 100 g of the active ingredient per 10 ares
Description: as §2

slender amaranth (Am) [6] = assay: as above; type: in vivo; details: 100 g of the active ingredient per 10 ares
Description: as §2

Diaitaria ciliaris (Di) = assay: Test Example 3: herbicidal effects by upland field foliage treatment; type: in vivo; set-up: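 grade of growth control; 5 = at least 90%; 4 = 70 to 90%; 3 = 50 to 70%; 2 = 30 to 50%; 1 = 10 to 30%; 0 = under 10%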
Method in brief: (§3)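 Seeds → sand pot (120 cm^2) → soil cover → greenhouse 2 wk → foliar treatment → greenhouse → herbicidal score at 14 d post-treatment against graded standards.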

barnyardgrass (Ec) [7] = assay: as above; type: in vivo; set-up: scale not given here
Method in brief: as §3

[8] = test system: common lambsquarters (Ch); assay: as above; type: in vivo; set-up: scale not given here
Method in brief: as §3

pale smartweed (Po) [9] = assay: as above; type: in vivo; set-up: scale not given here
Method in brief: as §3

rice flatsedge (Ci) [10] = assay: as above; type: in vivo; set-up: scale not given here
Method in brief: as §3

slender amaranth (Am) [11] = assay: as above; type: in vivo; set-up: scale not given here
Method in brief: as §3

cotton (Go) = assay: Test Example 4: crop plant selectivity by upland field soil treatment (cotton), phytotoxicity; type: in vivo; set-up: scale not given here; details: dose 6.3 g ai/10 a, evaluated 21st day after application
Method in brief: (§4)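 Cotton is sown alongside weeds in pots of sand, covered with soil, and the soil surface is treated. After greenhouse growth, herbicidal activity and phytotoxicity are graded on the 21st day.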

China jute (Ab) [12] = assay: Test Example 4: crop plant selectivity by upland field soil treatment (cotton), herbicidal effects; type: in vivo; set-up: scale not given here; details: dose 6.3 g ai/10 a, evaluated 21st day after application
Method in brief: as §4

[13] = test system: common lambsquarters (Ch); assay: as above; type: in vivo; set-up: scale not given here; details: dose 6.3 g ai/10 a, evaluated 21st day after application
Method in brief: as §4

green foxtail (Se) [14] = assay: as above; type: in vivo; set-up: scale not given here; details: dose 6.3 g ai/10 a, evaluated 21st day after application
Method in brief: as §4

pale smartweed (Po) [15] = assay: as above; type: in vivo; set-up: scale not given here; details: dose 6.3 g ai/10 a, evaluated 21st day after application
Method in brief: as §4

slender amaranth (Am) [16] = assay: as above; type: in vivo; set-up: scale not given here; details: dose 6.3 g ai/10 a, evaluated 21st day after application
Method in brief: as §4

corn (Ze) [17] = assay: Test Example 7: crop plant selectivity by upland field soil treatment (corn), phytotoxicity; type: in vivo; set-up: scale not given here; details: dose 6.3 g ai/10a, 21st day after application
Method in brief: (§5)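 Seeds of corn and of each weed species are sown in a pot of sand and covered with soil. The compound is applied, and the pots are kept in a greenhouse. On the 21st day, weed control and crop injury are judged by set criteria.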

China jute (Ab) [18] = assay: Test Example 7: crop plant selectivity by upland field soil treatment (corn), herbicidal effects; type: in vivo; set-up: scale not given here; details: dose 6.3 g ai/10a, 21st day after application
Method in brief: as §5

[19] = test system: common lambsquarters (Ch); assay: as above; type: in vivo; set-up: scale not given here; details: dose 6.3 g ai/10a, 21st day after application
Method in brief: as §5

green foxtail (Se) [20] = assay: as above; type: in vivo; set-up: scale not given here; details: dose 6.3 g ai/10a, 21st day after application
Method in brief: as §5

pale smartweed (Po) [21] = assay: as above; type: in vivo; set-up: scale not given here; details: dose 6.3 g ai/10a, 21st day after application
Method in brief: as §5

slender amaranth (Am) [22] = assay: as above; type: in vivo; set-up: scale not given here; details: dose 6.3 g ai/10a, 21st day after application
Method in brief: as §5

wheat (Tr) = assay: Test Example 9: crop plant selectivity by upland field foliage treatment (wheat), phytotoxicity; details: dose 1.6 g ai/10a, 14th day after treatment
Method in brief: (§6)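 Seeds of wheat, pale smartweed, slender amaranth, common lambsquarters and China jute are sown in sand and grown 2 weeks under glass. Foliage is then treated, culture resumes in the greenhouse, and damage is graded on the 14th day.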

China jute (Ab) [23] = assay: Test Example 9: crop plant selectivity by upland field foliage treatment (wheat), herbicidal effects; type: in vivo; set-up: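 grade of growth control; 5 = at least 90%; 4 = 70 to 90%; 3 = 50 to 70%; 2 = 30 to 50%; 1 = 10 to 30%; 0 = under 10%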; details: dose 1.6 g ai/10a, 14th day after treatment
Method in brief: as §6

[24] = test system: common lambsquarters (Ch); assay: as above; type: in vivo; set-up: scale not given here; details: dose 1.6 g ai/10a, 14th day after treatment
Method in brief: as §6

pale smartweed (Po) [25] = assay: as above; type: in vivo; set-up: scale not given here; details: dose 1.6 g ai/10a, 14th day after treatment
Method in brief: as §6

slender amaranth (Am) [26] = assay: as above; type: in vivo; set-up: scale not given here; details: dose 1.6 g ai/10a, 14th day after treatment
Method in brief: as §6

corn (Ze) [27] = assay: Test Example 11: crop plant selectivity by upland field foliage treatment (corn), phytotoxicity; details: upland field foliage treatment, dose 1.6 g ai/10a, 14th day after treatment
Method in brief: (§7)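 Corn and the weed species were sown together in sand-filled pots and grown in a greenhouse for 2 weeks before foliar treatment. Herbicidal effect was scored on day 14 after treatment against a graded standard scale, with corn phytotoxicity scored alongside.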

China jute (Ab) [28] = assay: Test Example 11: crop plant selectivity by upland field foliage treatment (corn), herbicidal effects; type: in vivo; set-up: scale not given here; details: upland field foliage treatment (corn test), dose 1.6 g ai/10a, 14th day after treatment
Method in brief: as §7

[29] = test system: common lambsquarters (Ch); assay: as above; type: in vivo; set-up: scale not given here; details: upland field foliage treatment (corn test), dose 1.6 g ai/10a, 14th day after treatment
Method in brief: as §7

pale smartweed (Po) [30] = assay: as above; type: in vivo; set-up: scale not given here; details: upland field foliage treatment (corn test), dose 1.6 g ai/10a, 14th day after treatment
Method in brief: as §7

slender amaranth (Am) [31] = assay: as above; type: in vivo; set-up: scale not given here; details: upland field foliage treatment (corn test), dose 1.6 g ai/10a, 14th day after treatment
Method in brief: as §7

[32] = 21st day after the application, index 0-5 of Table 47
[33] = 100 g of the active ingredient per 10 ares, evaluated on the 14th day after treatment
[34] = evaluated on the 21st day after application
[35] = 100 g active ingredient per 10 ares, evaluated 14th day after treatment

Cn1c(C(F)(F)F)ccc(-c2cc(Oc3ncccn3)c(Cl)cc2Cl)c1=O [1-41]
Herbicidal effects Ec (barnyardgrass (Ec) [1]): 5
Herbicidal effects Sc (bulrush (Sc)): 5
Herbicidal effects Mo (monochoria (Mo)): 5
Herbicidal effects Di (Digitaria ciliaris (Di); [32]): 5
Herbicidal effects Ec (barnyardgrass (Ec) [2]; [32]): 5
Herbicidal effects Ch [3, 32]: 5
Herbicidal effects Po (pale smartweed (Po) [4]; [32]): 5
Herbicidal effects Ci (rice flatsedge (Ci) [5]; [32]): 5
Herbicidal effects Am (slender amaranth (Am) [6]; [32]): 5
Herbicidal effects Di (Diaitaria ciliaris (Di); [33]): 5
Herbicidal effects Ec (barnyardgrass (Ec) [7]; [33]): 5
Herbicidal effects Ch [8, 33]: 5
Herbicidal effects Po (pale smartweed (Po) [9]; [33]): 5
Herbicidal effects Ci (rice flatsedge (Ci) [10]; [33]): 5
Herbicidal effects Am (slender amaranth (Am) [11]; [33]): 5
Phytotoxicity Go (cotton (Go)): 1
Herbicidal effects Ab (China jute (Ab) [12]): 5
Herbicidal effects Ch [13]: 5
Herbicidal effects Se (green foxtail (Se) [14]): 5
Herbicidal effects Po (pale smartweed (Po) [15]): 5
Herbicidal effects Am (slender amaranth (Am) [16]): 5
Phytotoxicity Ze (corn (Ze) [17]): 1
Herbicidal effects Ab (China jute (Ab) [18]): 5
Herbicidal effects Ch [19]: 5
Herbicidal effects Se (green foxtail (Se) [20]): 5
Herbicidal effects Po (pale smartweed (Po) [21]): 5
Herbicidal effects Am (slender amaranth (Am) [22]): 5
Phytotoxicity Tr (wheat (Tr)): 2
Herbicidal effects Ab (China jute (Ab) [23]): 5
Herbicidal effects Ch [24]: 5
Herbicidal effects Po (pale smartweed (Po) [25]): 5
Herbicidal effects Am (slender amaranth (Am) [26]): 5
Phytotoxicity Ze (corn (Ze) [27]): 2
Herbicidal effects Ab (China jute (Ab) [28]): 5
Herbicidal effects Ch [29]: 5
Herbicidal effects Po (pale smartweed (Po) [30]): 5
Herbicidal effects Am (slender amaranth (Am) [31]): 5

Cn1c(C(F)(F)F)ccc(-c2c(Cl)cc(Cl)c3oc(C(Br)(Br)Br)cc23)c1=O [4-40, 3-(5,7-dichloro-2-tribromomethylbenzofuran-4-yl)-1-methyl-6-trifluoromethyl-2-(1H)-pyridone]
melting point: 225 to 227 °C

CC(C)C(=O)c1cc(-c2ccc(C(F)(F)F)n(C)c2=O)c(F)cc1Cl [Compound 1-196]
Herbicidal effects Ec (barnyardgrass (Ec) [1]): 5
Herbicidal effects Sc (bulrush (Sc)): 5
Herbicidal effects Mo (monochoria (Mo)): 5
Herbicidal effects Di (Digitaria ciliaris (Di); [34]): 5
Herbicidal effects Ec (barnyardgrass (Ec) [2]; [34]): 5
Herbicidal effects Ch [3, 34]: 5
Herbicidal effects Po (pale smartweed (Po) [4]; [34]): 5
Herbicidal effects Ci (rice flatsedge (Ci) [5]; [34]): 5
Herbicidal effects Am (slender amaranth (Am) [6]; [34]): 5
Herbicidal effects Di (Diaitaria ciliaris (Di); [35]): 5
Herbicidal effects Ec (barnyardgrass (Ec) [7]; [35]): 5
Herbicidal effects Ch [8, 35]: 5
Herbicidal effects Po (pale smartweed (Po) [9]; [35]): 5
Herbicidal effects Ci (rice flatsedge (Ci) [10]; [35]): 5
Herbicidal effects Am (slender amaranth (Am) [11]; [35]): 5
Phytotoxicity Go (cotton (Go)): 0
Herbicidal effects Ab (China jute (Ab) [12]): 5
Herbicidal effects Ch [13]: 5
Herbicidal effects Se (green foxtail (Se) [14]): 5
Herbicidal effects Po (pale smartweed (Po) [15]): 5
Herbicidal effects Am (slender amaranth (Am) [16]): 5
Phytotoxicity Ze (corn (Ze) [17]): 1
Herbicidal effects Ab (China jute (Ab) [18]): 5
Herbicidal effects Ch [19]: 5
Herbicidal effects Se (green foxtail (Se) [20]): 5
Herbicidal effects Po (pale smartweed (Po) [21]): 5
Herbicidal effects Am (slender amaranth (Am) [22]): 5
Phytotoxicity Tr (wheat (Tr)): 2
Herbicidal effects Ab (China jute (Ab) [23]): 5
Herbicidal effects Ch [24]: 5
Herbicidal effects Po (pale smartweed (Po) [25]): 5
Herbicidal effects Am (slender amaranth (Am) [26]): 5
Phytotoxicity Ze (corn (Ze) [27]): 2
Herbicidal effects Ab (China jute (Ab) [28]): 5
Herbicidal effects Ch [29]: 5
Herbicidal effects Po (pale smartweed (Po) [30]): 5
Herbicidal effects Am (slender amaranth (Am) [31]): 5

Cc1ccc(-c2ccc(Cl)cc2Cl)c(=O)n1C(F)F [Compound No. 1-8, 3-(2,4-dichlorophenyl)-1-difluoromethyl-6-methyl-2(1H)-pyridone]
melting point: 83 to 85 °C

Cn1c(C(F)(F)F)ccc(-c2cc(S)c(Cl)cc2F)c1=O [Compound No. 1-42, 3-(4-chloro-2-fluoro-5-mercaptophenyl)-1-methyl-6-trifluoromethyl-2(1H)-pyridone]
melting point: 141 to 142 °C

Cn1c(C(F)(F)F)ccc(-c2cc(N)c(Cl)cc2F)c1=O [Compound No. 1-59, 3-(5-amino-4-chloro-2-fluorophenyl)-1-methyl-6-trifluoromethyl-2(1H)-pyridone]
melting point: 155 to 157 °C

Cc1cc(-c2cc(O)c(Cl)cc2F)c(=O)n(C)c1C(F)(F)F [Compound No. 1-79, 3-(4-chloro-2-fluoro-5-hydroxyphenyl)-1,5-dimethyl-6-trifluoromethyl-2(1H)-pyridone]
melting point: 207 to 208 °C
